From article PMC9841525, “Chemical Blockage of the Mitochondrial Rhomboid Protease PARL by Novel Ketoamide Inhibitors Reveals Its Role in PINK1/Parkin-Dependent Mitophagy” (Journal of Medicinal Chemistry, 2022)
*1 amine or outer side, *2 acyl side, *3 side chain or, on linkers, in order; H or OH if unused. Where a SMILES comes first, the peptide text is derived from it. [ ]: non-standard residue; d: D form. The star is where a group is joined. X2 = O=C(C(=O)[*:2])[C@H](Cc1ccccc1)N[*:1]; NH(4-phenylbutyl) = c1ccc(CCCCN*)cc1; X1 = C[C@H](N[*:1])C(=O)C(=O)[*:2]; AMC = Cc1cc(=O)oc2cc(N*)ccc12

Legend:
Parkin [1] = experiment: Parkin recruitment to mitochondria and mitochondrial morphology, fluorescence microscopy; format: cell-based, human; settings: HEK293 T-REx PINK1 cells, 3 h; 5 μM compound 5, CCCP or Antimycin A, vs DMSO
Method: (§1) Inducible stable Flp-In HEK293 T-REx cells expressing PINK1 were described previously.[33] HEK293 T-REx PINK1 and HEK293T cells were grown in DMEM (Gibco) supplemented with 10% (v/v) fetal bovine serum (ThermoFisher), 1% (v/v) GlutaMAX (Gibco), 1% (v/v) sodium pyruvate (Gibco), 125 μg/mL hygromycin (Invitrogen), and 10 μg/mL blasticidin (Gibco) or DMEM supplemented with 10% (v/v) fetal bovine serum, respectively, at 37 °C in 5% (v/v) CO2. For microscopy, cells were seeded on poly-L-lysine (Sigma)-coated slides. Transient plasmid transfections were performed using 25 kDa linear polyethylenimine (Polysciences). Plasmid (100 ng) encoding HA-Parkin-IRES-GFP, mito-mCherry or Parkin-mEGFP, or 500 ng plasmid encoding PGAM5-FLAG were used per 6-well. Total transfected DNA was 2 μg/well. For siRNA transfection, 2 × 10^5 cells were seeded per 6-well and on the next day transfected with 20 nM siRNA-oligonucleotide using lipofectamine RNAiMAX (ThermoFisher). Cells were analyzed 27 h post-transfection or five days post-siRNA-transfection. HEK293 T-REx PINK1 cells were induced with 0.3 μg/mL doxycycline for 24 h before further processing. Hoechst staining (1 μg/mL) was done immediately before adding treatment to the cells. Treatments were administered for the indicated times before processing; CCCP (Sigma) was always used as 10 μM for 3 h and Antimycin A (Sigma) as 30 μM for 3 h.
For fixation, cells were incubated for 15 min with 4% formaldehyde (16% formaldehyde diluted in PBS, Thermo Scientific) and washed in PBS. The cover glasses were mounted with Fluoromount-G (Southern Biotech) on microscope slides. […] Parkin recruitment events to the mitochondria were counted by hand throughout each z-stack and cell. […] JC-1 images were handled as summed intensity z-stack projections, as well as subjected to flatfield correction and subtraction of background before measuring the fluorescence levels normalized to the number of cell nuclei. The fluorescence intensity ratio between the red and green signal was calculated and compared to DMSO as a ratio of 1. Data were evaluated using Excel and GraphPad Prism 6.

Parkin [2] = experiment: Parkin recruitment to mitochondria, subcellular fractionation and immunoblot; format: cell-based, human; settings: HEK293 T-REx PINK1 cells, HA-Parkin-IRES-GFP; 5 μM compound 5, CCCP 10 μM or Antimycin A 30 μM
Method: as §1
Unless mentioned otherwise, all steps were performed at 4 °C. For subcellular fractionation to separate cellular content into cytosolic and mitochondrial fractions, cells were washed with PBS, harvested in PBS-EDTA (1 mM EDTA, 0.2 g/L D-glucose), and centrifuged at 500 × g for 5 min. […]
For immunoblot analysis in other cases, cells were either processed as described above or washed with PBS and directly lysed with Tris-glycine SDS-PAGE sample buffer and heated for 15 min at 65 °C. […] For quantification, ImageJ was used (http://rsb.info.nih.gov/ij/). […]

PARL [3] = molecular target: T1, PARL (Homo sapiens, UniProt Q9H300); experiment: In vitro assay for PARL activity, cleavage of AMC substrates by liposome-embedded PARL; format: biochemical; design: hexahistidine tag (C); made in house; host or cells: continuous-exchange cell-free expression in bacterial lysates with T7 polymerase (CUBE biotech), into liposomes; settings: mature PARL in liposomes, S277A catalytic mutant as control
T1 sequence (Q9H300 53-379): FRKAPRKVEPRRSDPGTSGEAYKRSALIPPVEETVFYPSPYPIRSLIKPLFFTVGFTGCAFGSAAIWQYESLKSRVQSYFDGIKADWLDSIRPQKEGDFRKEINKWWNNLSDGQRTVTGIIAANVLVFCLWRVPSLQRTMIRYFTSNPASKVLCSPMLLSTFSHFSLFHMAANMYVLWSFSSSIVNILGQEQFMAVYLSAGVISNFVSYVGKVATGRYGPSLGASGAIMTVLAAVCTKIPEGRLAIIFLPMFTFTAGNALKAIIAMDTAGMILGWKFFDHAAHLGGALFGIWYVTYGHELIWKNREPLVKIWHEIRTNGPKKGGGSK
Method: Liposome preparation and cell-free protein expression of PARL were carried out essentially as described previously.[27] Liposomes resembling the lipid composition of the IMM were prepared by mixing 40% DOPC (1,2-dioleoyl-sn-glycero-3-phosphocholine), 33.8% DOPE (1,2-dioleoyl-sn-glycero-3-phosphoethanolamine), 18% CL(18:1)4 (1′,3′-bis[1,2-dioleyl-sn-glycero-3-phospho]-glycerol), 3% DOPS (1,2-dioleoyl-sn-glycero-3-phospho-L-serine), 5% soy-PI (L-α-phosphatidylinositol), and 0.2% rhodamine-PE (1,2-dioleoyl-sn-glycero-3-phosphoethanolamine-N-(lissamine rhodamine B sulfonyl)) in chloroform, followed by the evaporation of chloroform by a stream of nitrogen gas and drying in a vacuum chamber (Binder) for 1 h. […] Concentration of PARL was determined by absorption at 280 nm.
The PARL activity assay in vitro was carried out in 5 mM Tris, 5 mM Mg(OAc)2, 25 μM Zn(OAc)2, 0.1 μg/μL BSA, 30% DMSO, pH 8.0 using PARL in liposomes at 0.05 mg/mL. Compound 3 and 4 were used at 5 μM final concentration based on quantitative amino acid analysis. […] The cleavage reaction was carried out at 37 °C in 96-well black HTS plates (Greiner Bio-One) in a plate reader (Tecan Infinite M1000) with excitation and emission wavelengths set to 355 and 450 nm, respectively. Data were evaluated using Excel (Microsoft) and GraphPad Prism 9 (GraphPad Software, Inc.).

PARL [4] = molecular target: T1, PARL; experiment: PARL inhibition in vitro, PARL in liposomes with substrate compound 4; format: biochemical; design: hexahistidine tag (C); made in house; host or cells: continuous-exchange cell-free expression in bacterial lysates with T7 polymerase (CUBE biotech), into liposomes; settings: recombinant mature PARL in liposomes, 100 μM substrate compound 4, mean ± SEM of three or four measurements
Method: Liposome preparation and cell-free protein expression of PARL were carried out essentially as described previously.[27] Liposomes resembling the lipid composition of the IMM were prepared by mixing 40% DOPC (1,2-dioleoyl-sn-glycero-3-phosphocholine), 33.8% DOPE (1,2-dioleoyl-sn-glycero-3-phosphoethanolamine), 18% CL(18:1)4 (1′,3′-bis[1,2-dioleyl-sn-glycero-3-phospho]-glycerol), 3% DOPS (1,2-dioleoyl-sn-glycero-3-phospho-L-serine), 5% soy-PI (L-α-phosphatidylinositol), and 0.2% rhodamine-PE (1,2-dioleoyl-sn-glycero-3-phosphoethanolamine-N-(lissamine rhodamine B sulfonyl)) in chloroform, followed by the evaporation of chloroform by a stream of nitrogen gas and drying in a vacuum chamber (Binder) for 1 h. Dried lipids were dissolved in buffer (5 mM Tris/HCl, pH 8.5, 10 mM KOAc) and extruded 21 times through a mini extruder (Avanti Polar Lipids) using a polycarbonate membrane with a pore size of […]. […] The PARL-containing liposomes were purified by a step-wise sucrose step-gradient centrifugation (0, 15, 30, and 40% sucrose in 5 mM HEPES pH 7.5 with 25 mM NaCl) for 2 h at 200,000 × g. Soluble proteoliposomes were harvested at the 0%/15% sucrose interface after the centrifugation. Concentration of PARL was determined by absorption at 280 nm.
PARL inhibition in vitro was measured in 5 mM Tris, 5 mM Mg(OAc)2, 25 μM Zn(OAc)2, 0.1 μg/μL BSA, 10% DMSO, pH 8.0 using PARL in liposomes at 0.07 mg/mL and compound 4 at 100 μM final concentration. Inhibitor concentrations were determined by quantitative amino acid analysis. Inhibitors in DMSO were dissolved at the respective concentrations into the reaction buffer by vigorous mixing at 1000 rpm, 37 °C for 40 min and then pre-incubated with PARL in liposomes at 37° for 1 h. The cleavage reaction was started by adding compound 4 and carried out at 37 °C in 96-well black HTS plates (Greiner Bio-One). Fluorescence was read in a plate reader (Tecan Infinite M1000) with excitation and emission wavelengths set to 355 and 450 nm, respectively. Data were evaluated using Excel (Microsoft) and GraphPad Prism 9 (GraphPad Software, Inc.). The data shown are representative of at least three independent experiments.

PARL [5] = molecular target: T1, PARL; experiment: PARL inhibition assay in cells: cleavage of overexpressed PGAM5-Myc by tetracycline-induced PARL-FLAG, immunoblot; format: cell-based; design: expressed in transfected cells; host or cells: Flp-In HEK293 T-REx PARL knockout cells; settings: Flp-In HEK293 T-REx PARL KO cells with inducible PARL-FLAG, PGAM5-Myc, mean ± SEM of four or three experiments; read-out: Apparent IC50, PGAM5 cleavage by overexpressed PARL
Method: PARL inhibition assays in cells were carried out in Flp-In HEK293 T-REx PARL knockout cells stably transfected with tetracycline inducible PARL-FLAG grown in DMEM (Gibco) supplemented with 10% (v/v) tetracycline-free fetal bovine serum (Clontech). For the inhibition assay, 0.7 × 10^6 cells were seeded per well of a 6-well plate, and the next day transfected with 5 μg of human PGAM5-Myc in pcDNA and 15 μg of branched polyethylenimine (Polysciences) per well. Four hours after transfection, the PARL expression was induced by adding tetracycline to 1 μg/mL. Eight hours after transfection, the inhibitors were added to each well in different concentrations in serum-free DMEM with 1% DMSO.
For immunoblot analysis of the effects of PARL inhibitors on PGAM5 cleavage, after overnight incubation with inhibitors, cells from each well were harvested in 1× SDS sample buffer containing 20 mM MgCl2 and Pierce universal nuclease (250 U/mL, Thermo Scientific) and heated to 65 °C for 10 min. Loading volumes for SDS-PAGE were adjusted by measuring total protein concentration in the lysates with Pierce 660 nm Protein Assay Reagent and Ionic Detergent Compatibility Reagent for Pierce 660 nm Protein Assay Reagent (Thermo Scientific). Samples were resolved by SDS-PAGE using a 12% polyacrylamide gel (Biorad) and electrotransferred onto an Immobilon PVDF membrane (Merck Millipore). Blots were blocked using casein blocker (Thermo Scientific) and hPGAM5 was labeled by rabbit anti-Myc antibody (Cell Signaling Technology, cat. #2278, dilution 1:1000) at 4 °C overnight. Blots were washed three times with TBS-T and incubated with IRDye 800 CW donkey anti-rabbit antibody (Invitrogen, cat. #SA5-10044, dilution 1:10,000) at room temperature for 2 h. Membranes were then again washed three times with TBS-T and one time with TBS. Fluorescence emission at […] of dried membranes was scanned on Odyssey CLx (LI-COR). Cleavage efficiency and inhibition were analyzed as described[23] using Image Studio Lite (LI-COR), Excel (Microsoft) and GraphPad Prism 9 (GraphPad Software, Inc.).

CCCCCC[C@H]1C(=O)O[C@H](C)[C@H](NC(=O)c2cccc(NC=O)c2O)C(=O)O[C@@H](C)[C@@H]1OC(=O)CC(C)C [Antimycin A]
Recruitment of Parkin-mEGFP to mitochondria (microscopy) (Parkin [1]): not significantly different from Parkin recruitment under DMSO conditions | Parkin recruitment to the mitochondrial fraction (Parkin [2]): activates the PINK1/Parkin pathway

CC(=O)N[C@@H](CCCNC(=N)N)C(=O)N[C@@H](CCCNC(=N)N)C(=O)N[C@@H](CCCNC(=N)N)C(=O)N[C@@H](C)C(=O)N[C@H](C(=O)N[C@@H](Cc1ccccc1)C(=O)N[C@@H](CC(C)C)C(=O)N[C@@H](C)C(=O)Nc1ccc2c(C)cc(=O)oc2c1)C(C)C [compound 4, AcRRRAVFLA-4mc] (Ac-RRRAVFLA-{AMC})
Cleavage of substrate by liposome-embedded PARL (PARL [3]): are cleaved by liposome-embedded PARL but not its catalytic mutant

CC[C@H](C)[C@H](NC(=O)[C@H](CCCCN)NC(=O)[C@H](Cc1ccccc1)NC(=O)[C@H](CCCNC(=N)N)NC(=O)[C@H](CCCNC(=N)N)NC(C)=O)C(=O)N[C@@H](Cc1ccccc1)C(=O)C(=O)NCCCCc1ccccc1 [compound 7] (Ac-RRFKI[X2]-{NH(4-phenylbutyl)})
IC50 (PARL [4]): 1040 nM

CC(=O)N[C@@H](CCCNC(=N)N)C(=O)N[C@@H](CCCNC(=N)N)C(=O)N[C@@H](C)C(=O)N[C@H](C(=O)N[C@@H](Cc1ccccc1)C(=O)N[C@@H](CC(C)C)C(=O)N[C@@H](C)C(=O)C(=O)NCCCCc1ccccc1)C(C)C [compound 6] (Ac-RRAVFL[X1]-{NH(4-phenylbutyl)})
IC50 (PARL [5]): 3200 nM | IC50 (PARL [4]): 80 nM
